# Measurements as given in patent US20110319338A1, “PEPTIDES THAT BIND EUKARYOTIC TRANSLATION INITIATION FACTOR 4E” (The Board of Regents of the University of Texas System, priority 2008, published 2011).
# Entries after “also recorded” stand apart in the source; their conditions may differ. Square brackets hold non-standard residues; d marks the D form. Peptide text beside a SMILES is read from it. pGlu = O=C1CC[C@@H](C(=O)O)N1
# Columns and labels:
# [1] = Mouse serum antibody assays; format: in vivo, mice; settings: serum 1:100 dilution
# Protocol: FIGS. 12A-12C. Serum luteinizing hormone (LH) levels and serum antibody reactivity.
# Mouse serum antibody assays. Wells in 96-well plates were coated with 50 nanograms of [DLys6]GnRH-4EBP1-WT peptide or with 100 nanograms of ES-2 cell lysate. Serum of saline- and peptide-treated mice (1:100 dilution) was incubated in wells for 2 hours at room temperature. Bound IgG was detected using horseradish peroxidase-conjugated goat anti-mouse IgG, and measured at an optimal density of 450 nm.
# [2] = Tolerability in xenograft mice: observation, histology and TUNEL-staining of tissues; format: in vivo
# From the text: FIGS. 11A-11B. TUNEL-staining of tissues of saline- and peptide-treated mice. […] Shown are normal tissues of the brain, heart, lung, liver, breast, pancreas and ovary, and tumor implants on the omentum. Bar, 60 micrometers. Pancreatic and ovarian sections show normal pancreatic (P) and ovarian (O) tissues plus adjacent tumor (T). Also shown are normal tissues of the pituitary and bone marrow. Bar, 20 micrometers
# (§1) Animal Studies. Animal studies were approved by the Institutional Animal Care and Use Committee. The ES-2 cell line stably expressing enhanced green fluorescent protein (ES-2-GFP) has been described in previous work (Hara et al., 2007). Four-week-old female nude mice were inoculated i.p. at one site in the lower abdomen with 10^6 ES-2-GFP cells. At Day 9 after tumor cell inoculation, one group of mice (n=5) were killed by CO2 asphyxiation. At Day 9, other groups of mice were administered by i.p. injection with 200 microliters of phosphate-buffered saline (PBS) (n=11), [DLys6]GnRH (n=11) or [DLys6]GnRH-4EBP1-WT peptide (n=11) at a dose of 3.0 nanomoles per gram body weight. Peptides were suspended in PBS and administered at a volume of 200 microliters. PBS or peptide was administered every 2 days thereafter for 11 days (6 doses in total). Mice were sacrificed on Day 20, and ascites harvested. Tumors were visualized under a Leica MZML III fluorescence stereomicroscope equipped with mercury lamp power supply and green fluorescent protein (GFP) filter set. Tumor burden was quantified by measuring areas of fluorescence signals within the abdominal cavity in captured images by using Image Pro Plus 5.0 software (Media Cybernetics, Bethesda, Md.). Slides of paraffin-embedded tissues collected from mice were stained with hematoxylin-eosin. TUNEL-staining of tissue sections was performed using the in situ cell death detection kit (Roche).
# [3] = Peptide stability in serum and in culture medium (Western blot, MALDI TOF); format: in vitro ADME; settings: human, serum (undiluted, of an ovarian cancer patient), 37° C.
# Protocol: FIGS. 6A-6B. Stability of [DLys6]GnRH-4EBP1 peptide. Biotinylated peptide was added to McCoys' 5A medium containing 10% fetal bovine serum (FBS), and to human serum. Samples were immediately withdrawn (0 hours). The remaining mixtures were incubated at 37° C., and samples taken thereafter at 1, 3, 6, 12 and 24 hours. In (FIG. 6A), samples were analyzed by Western blot using horseradish peroxidase-conjugated strepatavidin. In (FIG. 6B), samples of peptide incubated in serum for 0, 12 and 24 hours were analyzed by Matrix Assisted Laser Desorption Ionization-Time of Flight (MALDI TOF) mass spectrometry. Peaks corresponding to intact peptide (mass: 3990) are indicated. Peaks of 1256, 1684 and 3384 in mass are likely to represent degradation products of the peptide.
# Peptide stability studies. Biotinylated peptide (7 micrograms) was mixed with McCoys' 5A medium containing 10% FBS in a final volume of 140 microliters. A sample of 20 microliters was immediately removed and frozen. The remaining mixture was incubated at 37° C., and 20 microliters samples taken thereafter at 1, 3, 6, 12 and 24 hours. […] Samples were analyzed by Western blot using horseradish peroxidase-conjugated strepatavidin, and by MALDI TOF mass spectrometry using an Applied Biosystems 4700 Proteomic Analyzer.
# [4] = tested on: luteinizing hormone (LH); assay: Assay of serum LH levels by radioimmunoassay; settings: serum collected at end of regimen (Day 20)
# [5] = tested on: ES-2-GFP cells; assay: Mouse i.p. xenograft model of epithelial ovarian cancer; format: in vivo; settings: for Deaths (died before completing treatment regimen) / Drop-outs (euthanized prior to completion due to morbidity related to ascites accumulation): of 11 mice per group
# Protocol: FIGS. 4A-4C. Anti-tumor activity of [DLys6]GnRH-4EBP1-WT peptide in a xenograft model of EOC. Female nude mice were inoculated i.p. with one million ES-2-GFP cells. At Day 9 after tumor cell inoculation, one group of mice (n=5) was sacrificed (pre-treatment). At Day 9, other groups of mice were administered by i.p. injection with saline (n=11), [DLys6]GnRH (n=11) or [DLys6]GnRH-4EBP1-WT (n=11) at a dose of 3.0 nanomoles per gram body weight Saline or peptide was administered every 2 days thereafter for 11 days (6 doses in total), and mice were sacrificed on Day 20. (FIG. 4A) Visualization under a fluorescence stereoscope of i.p. tumors in pre-treatment mice (at Day 9) including implants on the omentum (ome), and in mice treated with saline, with agonist alone and with [DLys6]GnRH-4EBP1-WT (at Day 20). (FIG. 4B) Hematoxylin eosin-stained sections of tissues of pre-treatment mice (at Day 9) and of saline- and peptide-treated mice (at Day 20). Tumors attached to the omentum extensively involved the pancreas in saline- and agonist-treated mice. Also shown are tumors attached to the broad ligament and mesentery. Bar, 200 micrometers. (FIG. 4C) Quantification of i.p. tumor burden in pre-treatment and treated mice that completed the regimen, expressed as the average percent of area of fluorescence within the abdominal cavity in captured images, and volume of ascites. Median values of tumor burden and ascites volume for each group and statistical significance of differences between groups are indicated.
# as §1
# To determine the efficacy of [DLys6]GnRH-4EBP1-WT peptide in vivo, a mouse i.p. xenograft model was used that was established from an ES-2 cell line stably expressing GFP (Hara et al., 2007). This model mimics the typical behavior of epithelial ovarian cancer, including i.p. dissemination and ascites formation. This example comprised three treatment groups of mice i) saline, ii) [DLys6]GnRH agonist, and iii) [DLys6]GnRH-4EBP1-WT, where sample size of each group was n=11. The first dose of peptide or saline was administered i.p. to mice at Day 9 after tumor cell inoculation. At Day 9, no ascites had yet formed but tumors had established on the omentum, broad ligament and mesentery which are common sites of ovarian cancer cell attachment (FIGS. 4A,B). A schedule in which peptide was administered every 2 days was chosen, based on the studies of peptide stability in serum (FIG. 6).
# Based on studies of other agonist conjugates in xenograft models (19-21), a peptide dose of 3.0 nanomoles per gram body weight was used. […]
smiles,measurement,setting,value
CC[C@H](C)[C@H](NC(=O)[C@H](CCCNC(=N)N)NC(=O)[C@@H](NC(=O)CNC(=O)CNC(=O)[C@@H]1CCCN1C(=O)[C@H](CCCNC(=N)N)NC(=O)[C@H](CC(C)C)NC(=O)[C@@H](CCCCN)NC(=O)[C@H](Cc1ccc(O)cc1)NC(=O)[C@H](CO)NC(=O)[C@H](Cc1c[nH]c2ccccc12)NC(=O)[C@H](Cc1c[nH]cn1)NC(=O)[C@@H]1CCC(=O)N1)[C@@H](C)O)C(=O)N[C@H](C(=O)N[C@@H](Cc1ccc(O)cc1)C(=O)N[C@@H](CC(=O)O)C(=O)N[C@@H](CCCNC(=N)N)C(=O)N[C@@H](CCCCN)C(=O)N[C@@H](Cc1ccccc1)C(=O)N[C@@H](CC(C)C)C(=O)N[C@@H](CCSC)C(=O)N[C@@H](CCC(=O)O)C(=O)N[C@@H](CS)C(=O)N[C@@H](CCCNC(=N)N)C(=O)N[C@@H](CC(N)=O)C(=O)N[C@@H](CO)C(=O)N1CCC[C@H]1C(=O)N[C@H](C(=O)N[C@H](C(=O)O)[C@@H](C)O)C(C)C)[C@@H](C)CC [[DLys6]GnRH-4EBP1-WT] ([pGlu]HWSY[dK]LRPGGTRIIYDRKFLMECRNSPVT-OH),mice with antibody reactivity to [DLys6]GnRH-4EBP1-WT at least two standard deviations above mean background in saline-treated mice,[1],2 of 8
same,"TUNEL-positive cells in other normal tissues (brain, heart, lung and bone marrow)",[2]; Day 20,not detected
same,TUNEL-staining in ovaries,[2]; Day 20,some staining was observed
same,TUNEL-staining of cells of the liver and pancreas,[2]; Day 20,TUNEL-negative
same,TUNEL-staining in breast and pituitary tissues,"[2]; Day 20, tissues that express GnRH-RI",No TUNEL-staining was detected
same,half-life,[3],5 to 6 h
same,serum LH levels compared with saline-treated mice,[4],not significantly different
same,"Mice euthanized, day","[5]; drop-out mice, individual animals","n = 1, day 15; also recorded: n = 1, day 17"
same,day of death before completing treatment regimen,"[5]; mouse, in vivo",19 days
same,Deaths (died before completing treatment regimen),[5],1
same,Drop-outs (euthanized prior to completion due to morbidity related to ascites accumulation),[5],2
same,Deaths (died before completing treatment regimen),[5]; listed as [DLys6]GnRH-4EBP-WT,one
same,Drop-outs (euthanized prior to completion due to morbidity related to ascites accumulation),[5]; listed as [DLys6]GnRH-4EBP-WT,two
